Data: article PMC6345968, “Structural basis for species-selective targeting of Hsp90 in a pathogenic fungus” (Nature Communications, 2019)
Where two headings read alike, the source gives them in different places.

Legend:
[1] = target: T1, Hsp90 in C. albicans (SC5314) lysate (Candida albicans, UniProt P46598); experiment: biochemical; assay type: binding; conditions: for Ratio re. GdA: EC50 relative to GdA; for Ratio re. GdA / FP signal (raw) / FP signal relative to 0 nM / FP signal: SC5314 lysate; for FP signal: raw
T1 construct: endogenous in cells; host or cells: C. albicans SC5314 whole-cell lysate

[2] = tested on: Hsp90 in HEPG2 lysate; conditions: for FP signal: raw
[3] = ratio of GdA-normalized EC50s, human over fungal lysate
[4] = ratio of GdA-relative EC50 ratios, HepG2 over SC5314
[5] = EC50 / EC50 of GdA in HepG2 lysate
[6] = EC50 relative to GdA, HEPG2 lysate
[7] = HEPG2 lysate, log concentration 0.137354 (1.372 nM)
[8] = HEPG2 lysate, log concentration 0.61437 (4.115 nM)
[9] = HEPG2 lysate, log concentration 1.09153 (12.346 nM)
[10] = HEPG2 lysate, log concentration 1.56864 (37.037 nM)
[11] = HEPG2 lysate, log concentration 2.04576 (111.111 nM)
[12] = HEPG2 lysate, log concentration 2.52288 (333.333 nM)
[13] = HEPG2 lysate, log concentration 3 (1000 nM)
[14] = HEPG2 lysate, log concentration 3.47712 (3000 nM)
[15] = HEPG2 lysate, log concentration -0.340084 (0.457 nM)
[16] = HepG2 lysate, 0.457 nM compound
[17] = HepG2 lysate, 1.372 nM compound
[18] = HepG2 lysate, 4.115 nM compound
[19] = HepG2 lysate, 12.346 nM compound
[20] = HepG2 lysate, 37.037 nM compound
[21] = HepG2 lysate, 111.111 nM compound
[22] = HepG2 lysate, 333.333 nM compound

T1 sequence (P46598 whole entry): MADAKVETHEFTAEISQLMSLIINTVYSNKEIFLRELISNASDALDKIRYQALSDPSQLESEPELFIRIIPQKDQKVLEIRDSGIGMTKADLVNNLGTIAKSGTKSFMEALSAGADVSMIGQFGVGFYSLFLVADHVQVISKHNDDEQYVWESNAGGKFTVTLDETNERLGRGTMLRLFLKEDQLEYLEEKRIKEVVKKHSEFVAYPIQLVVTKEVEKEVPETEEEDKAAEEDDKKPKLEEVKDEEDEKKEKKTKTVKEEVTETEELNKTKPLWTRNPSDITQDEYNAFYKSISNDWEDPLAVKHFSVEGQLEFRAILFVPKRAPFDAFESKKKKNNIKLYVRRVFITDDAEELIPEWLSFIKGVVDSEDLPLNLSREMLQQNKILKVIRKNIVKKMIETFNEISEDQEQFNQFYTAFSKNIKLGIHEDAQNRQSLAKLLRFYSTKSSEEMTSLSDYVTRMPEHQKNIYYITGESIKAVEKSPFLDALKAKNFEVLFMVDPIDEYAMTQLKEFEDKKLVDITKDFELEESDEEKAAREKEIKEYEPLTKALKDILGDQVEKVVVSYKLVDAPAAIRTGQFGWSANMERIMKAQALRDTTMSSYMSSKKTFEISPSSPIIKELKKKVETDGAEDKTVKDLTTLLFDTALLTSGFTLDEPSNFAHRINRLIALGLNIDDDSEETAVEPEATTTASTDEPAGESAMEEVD

SMILES: CC1CC2OC2C=CC=CC(=NOCCN2CCCC2=O)Cc2c(Cl)c(O)cc(O)c2C(=O)O1 (stereo not drawn) [KF58333, reference compound]
- EC50 ([1]; EC50, SC5314 lysate, not normalized, oxime panel experiment 220817): 6.86 nM
- Ratio re. GdA [1]: 0.4034
- FP signal (raw) ([1]; 0.457 nM): 203
- FP signal relative to 0 nM ([1]; 0.457 nM compound): 0.9807
- FP signal ([1]; 0.457 nM compound): 203
- FP signal (raw) ([1]; 1.372 nM): 193
- FP signal relative to 0 nM ([1]; 1.372 nM compound): 0.9324
- FP signal ([1]; 1.372 nM compound): 193
- FP signal (raw) ([1]; 4.115 nM): 162
- FP signal relative to 0 nM ([1]; 4.115 nM compound): 0.7826
- FP signal ([1]; 4.115 nM compound): 162
- FP signal (raw) ([1]; 12.346 nM): 71
- FP signal relative to 0 nM ([1]; 12.346 nM compound): 0.343
- FP signal ([1]; 12.346 nM compound): 71
- FP signal (raw) ([1]; 37.037 nM): 44
- FP signal relative to 0 nM ([1]; 37.037 nM compound): 0.2126
- FP signal ([1]; 37.037 nM compound): 44
- FP signal (raw) ([1]; 111.111 nM): 38
- FP signal relative to 0 nM ([1]; 111.111 nM compound): 0.1836
- FP signal ([1]; 111.111 nM compound): 38
- FP signal (raw) ([1]; 333.333 nM): 35
- FP signal relative to 0 nM ([1]; 333.333 nM compound): 0.1691
- FP signal ([1]; 333.333 nM compound): 35
- FP signal (raw) ([1]; 1000 nM): 37
- FP signal relative to 0 nM ([1]; 1000 nM compound): 0.1787
- FP signal ([1]; 1000 nM compound): 37
- FP signal (raw) ([1]; 3000 nM): 36
- FP signal relative to 0 nM ([1]; 3000 nM compound): 0.1739
- FP signal ([1]; 3000 nM compound): 36
- HepG2/SC5314 [1, 3]: 1.165
- HepG2/SC5314 [1, 4]: 1.165
- Ratio rel. GdA (HepG2) [2, 5]: 0.4698
- Ratio rel. GdA (HepG2) [2, 6]: 0.4698
- FP signal, Fxn Control [2, 7]: 0.9604
- FP signal, Fxn Control [2, 8]: 0.9307
- FP signal, Fxn Control [2, 9]: 0.5149
- FP signal, Fxn Control [2, 10]: 0.302
- FP signal, Fxn Control [2, 11]: 0.2277
- FP signal, Fxn Control [2, 12]: 0.2129
- FP signal, Fxn Control [2, 13]: 0.2277
- FP signal, Fxn Control [2, 14]: 0.2475
- FP signal, Fxn Control [2, 15]: 0.9703
- FP signal (raw) ([2]; HepG2 lysate, 0.457 nM): 196
- FP signal [2, 16]: 196
- FP signal (raw) ([2]; HepG2 lysate, 1.372 nM): 194
- FP signal [2, 17]: 194
- FP signal (raw) ([2]; HepG2 lysate, 4.115 nM): 188
- FP signal [2, 18]: 188
- FP signal (raw) ([2]; HepG2 lysate, 12.346 nM): 104
- FP signal [2, 19]: 104
- FP signal (raw) ([2]; HepG2 lysate, 37.037 nM): 61
- FP signal [2, 20]: 61
- FP signal (raw) ([2]; HepG2 lysate, 111.111 nM): 46
- FP signal [2, 21]: 46
- FP signal (raw) ([2]; HepG2 lysate, 333.333 nM): 43
- FP signal [2, 22]: 43
- FP signal (raw) ([2]; HepG2 lysate, 1000 nM): 46
- FP signal ([2]; HepG2 lysate, 1000 nM compound): 46
- FP signal (raw) ([2]; HepG2 lysate, 3000 nM): 50
- FP signal ([2]; HepG2 lysate, 3000 nM compound): 50
- EC50 ([2]; HepG2 lysate, oxime panel experiment 220817): 10.4 nM

SMILES: COc1ccc(CON=C2C=CC=CC3OC3CC(C)OC(=O)c3c(O)cc(O)c(Cl)c3C2)cc1 (mixture of isomers) [compound 224]
- Ratio re. GdA [1]: 79.2475
- FP signal (raw) ([1]; 0.457 nM): 204
- FP signal relative to 0 nM ([1]; 0.457 nM compound): 1.02
- FP signal ([1]; 0.457 nM compound): 204
- FP signal (raw) ([1]; 1.372 nM): 206
- FP signal relative to 0 nM ([1]; 1.372 nM compound): 1.03
- FP signal ([1]; 1.372 nM compound): 206
- FP signal (raw) ([1]; 4.115 nM): 205
- FP signal relative to 0 nM ([1]; 4.115 nM compound): 1.025
- FP signal ([1]; 4.115 nM compound): 205
- FP signal (raw) ([1]; 12.346 nM): 200
- FP signal relative to 0 nM ([1]; 12.346 nM compound): 1
- FP signal ([1]; 12.346 nM compound): 200
- FP signal (raw) ([1]; 37.037 nM): 198
- FP signal relative to 0 nM ([1]; 37.037 nM compound): 0.99
- FP signal ([1]; 37.037 nM compound): 198
- FP signal (raw) ([1]; 111.111 nM): 193
- FP signal relative to 0 nM ([1]; 111.111 nM compound): 0.965
- FP signal ([1]; 111.111 nM compound): 193
- FP signal (raw) ([1]; 333.333 nM): 171
- FP signal relative to 0 nM ([1]; 333.333 nM compound): 0.855
- FP signal ([1]; 333.333 nM compound): 171
- FP signal (raw) ([1]; 1000 nM): 116
- FP signal relative to 0 nM ([1]; 1000 nM compound): 0.58
- FP signal ([1]; 1000 nM compound): 116
- FP signal (raw) ([1]; 3000 nM): 52
- FP signal relative to 0 nM ([1]; 3000 nM compound): 0.26
- FP signal ([1]; 3000 nM compound): 52
- HepG2/SC5314 [1, 3]: 1.707
- HepG2/SC5314 [1, 4]: 1.707
- Ratio rel. GdA (HepG2) [2, 5]: 135.257
- Ratio rel. GdA (HepG2) [2, 6]: 135.257
- FP signal, Fxn Control [2, 7]: 1.005
- FP signal, Fxn Control [2, 8]: 0.9952
- FP signal, Fxn Control [2, 9]: 1.01
- FP signal, Fxn Control [2, 10]: 1.014
- FP signal, Fxn Control [2, 11]: 1.005
- FP signal, Fxn Control [2, 12]: 0.9952
- FP signal, Fxn Control [2, 13]: 0.8702
- FP signal, Fxn Control [2, 14]: 0.5048
- FP signal, Fxn Control [2, 15]: 0.9904
- FP signal (raw) ([2]; HepG2 lysate, 0.457 nM): 206
- FP signal [2, 16]: 206
- FP signal (raw) ([2]; HepG2 lysate, 1.372 nM): 209
- FP signal [2, 17]: 209
- FP signal (raw) ([2]; HepG2 lysate, 4.115 nM): 207
- FP signal [2, 18]: 207
- FP signal (raw) ([2]; HepG2 lysate, 12.346 nM): 210
- FP signal [2, 19]: 210
- FP signal (raw) ([2]; HepG2 lysate, 37.037 nM): 211
- FP signal [2, 20]: 211
- FP signal (raw) ([2]; HepG2 lysate, 111.111 nM): 209
- FP signal [2, 21]: 209
- FP signal (raw) ([2]; HepG2 lysate, 333.333 nM): 207
- FP signal [2, 22]: 207
- FP signal (raw) ([2]; HepG2 lysate, 1000 nM): 181
- FP signal ([2]; HepG2 lysate, 1000 nM compound): 181
- FP signal (raw) ([2]; HepG2 lysate, 3000 nM): 105
- FP signal ([2]; HepG2 lysate, 3000 nM compound): 105
